Source: patent publication US11576865B2, “Sustained-release dosage forms of ruxolitinib” (Incyte Corporation, priority 2012, dated 2023)

What was measured:
[1] = cited from earlier work
[2] = system: patients with myelofibrosis (MF); assay: Phase 2 sustained-release clinical trial, haematology and adverse events; details: human, in vivo, 16 weeks
Description: A Phase 2 clinical trial was carried out in patients with myelofibrosis (MF). A total of 41 subjects were enrolled, and spleen volume and total symptom scores were obtained at baseline. Tablets of sustained-release formulation SR-2 (see Example 1) were administered to fasted patients. All patients were treated with 25 mg once daily doses for 8 weeks. After 8 weeks, depending upon the clinical response, the investigator was allowed to (a) maintain the same dose of SR-2, (b) increase the dose to 50 mg once daily, (c) increase the dose to alternating doses of 25 mg and 50 mg, dosed once daily, or (d) switch to treatment with the immediate release formulation.
Data relating to mean platelet count and mean hemoglobin levels (Hgb) is presented below in Table 3 together with comparative data from the COMFORT-I study. […] Data is shown as mean±SD.
Data for adverse events relating to anemia, thrombocytopenia, neutropenia, and all Grade 3 or higher adverse events are compared for the sustained-release and COMFORT-I (immediate-release) studies (see Example 3 and Comparative Example A for descriptions of the studies) in Table 6a. Adverse events are graded according to CTCAE criteria which can be found online at ctep.cancer.gov/protocolDevelopment/electronic_applications/ctc.htm or evs.nci.nih.gov/ftp1/CTCAE/CTCAE_4.03_2010-06-14_QuickReference_5×7.pdf. A Grade 3 adverse event generally corresponds to a reaction that is severe or medically significant, but not immediately life-threatening where hospitalization or prolongation of hospitalization is indicated and where the reaction is disabling to the extent of limiting self care. Higher Grades are 4 (life-threatening requiring urgent intervention) and 5 (death). For anemia, Grade 3 corresponds to Hgb<8.0 g/dL; <4.9 mmol/L; <80 g/L, where a transfusion is indicated. For thrombocytopenia (decreased platelet count), Grade 3 corresponds to <50,000-25,000/mm^3; <50.0-25.0×10^9/L. The sustained-release data was evaluated for patients over the course of 16 weeks. Mean duration of exposure to ruxolitinib in the COMFORT-I was approximately 242 days. Typically, the majority of hematologic adverse events occur within the first few months of therapy as observed in the COMFORT-I study.
The sustained-release data was evaluated for patients over the course of 16 weeks. Mean duration of exposure to ruxolitinib in the COMFORT-I study was approximately 242 days. The vast majority of hematologic adverse events occur within the first few months of therapy as observed in the COMFORT-I study. […] Additionally, the severity of the adverse events is lesser in the sustained-release study.

[3] = Open-label study of immediate-release ruxolitinib phosphate tablets in MF patients, pharmacokinetics; type: in vivo, human; details: dose from 10 mg to 100 mg
Description: This was an open-label study exploring the safety, tolerability, and efficacy of ruxolitinib, administered orally to patients with primary myelofibrosis (PMF) and post polycythemia vera/essential thrombocythemia myelofibrosis (Post-PV/ET MF). The study was comprised of 3 parts: Part 1-dose escalation and expansion, bid dosing, Part 2-alternative dosing schedules (A, B and C), and Part 3-three independent patient groups (Group I, II and III). Eight dose regimens were evaluated in 3 parts. The Part 1 evaluated two dose levels of 25 mg bid and 50 mg bid, Part 2 studied five dose regimens of 10 mg bid, 25 mg bid, 25 mg qd, 50 mg qd and 100 mg qd and Part 3 assessed six dose regimens of 10 mg bid, 15 mg bid, 25 mg bid, 50 mg qd, 100 mg qd and 200 mg qd. A total of 154 subjects were enrolled; 32 subjects enrolled in Part 1, 29 subjects in Part 2 and 93 subjects in Part 3. See Table 4b (qd=once per day; bid=twice per day).
In Part 1, the pharmacokinetic blood samples were collected at pre-dose and 0.5, 1, 1.5, 2, 4, 6 and 9 hours post-dose on Days 1 and 15 of Cycle 1 and at pre-dose on Day 1 of Cycles 2 and 3, using lavender top (K3EDTA) Vacutainer® tubes. […]
Plasma samples were shipped to Incyte Corporation and assayed by a validated, GLP, LC/MS/MS method with a linear range of 1 to 1000 nM and a limit of quantification of 1 nM. […]

[4] = system: patients with intermediate-2 or high risk myelofibrosis; details: cited from earlier work
[5] = system: Myelofibrosis patients; details: COMFORT-II, 48 weeks (primary end point); cited from earlier work
[6] = system: patients with intermediate-2 or high risk myelofibrosis; details: cited from earlier work; remark: listed apart in the source
[7] = COMFORT I, immediate release, N = 155, maximum severity
[8] = COMFORT I, immediate release, N = 155, treatment-related, maximum severity
[9] = COMFORT I, immediate release, N = 155, treatment-related
[10] = COMFORT I, immediate release, N = 155
[11] = COMFORT I, mean exposure approximately 242 days
[12] = COMFORT-I Study (active), Week 12, mean total daily dose 30.4 mg, mean ± SD
[13] = COMFORT I immediate-release, n 129
[14] = COMFORT I immediate-release, n 139
[15] = COMFORT I immediate-release, n 140
[16] = COMFORT I immediate-release, n 148

Which results are given for `N#CC[C@H](C1CCCC1)n1cc(-c2ncnc3[nH]ccc23)cn1` [Ruxolitinib, (3R)-3-cyclopentyl-3-[4-(7H-pyrrolo[2,3-d]pyrimidin-4-yl)pyrazol-1-yl]propanenitrile]?
half-life ([1]; human, immediate-release, Shi et al.): about 3 hours; Bioavailability ([1]; oral): 70-80%; % of Subjects With Any Adverse Events, Any severity [2]: (78.0) %; % of Subjects with Anaemia, Any severity [2]: (4.9) %; % of Subjects with Blood and lymphatic system disorders, Any severity [2]: (19.5) %; % of Subjects with Thrombocytopenia, Any severity [2]: (14.6) %; Number of Subjects With Any Adverse Events, Any severity [2]: 32; Number of Subjects With Any Adverse Events, LT (life threatening) [2]: 0; Number of Subjects With Any Adverse Events, Mi (mild) [2]: 16; Number of Subjects With Any Adverse Events, Mo (moderate) [2]: 9; Number of Subjects With Any Adverse Events, Se (severe) [2]: 7; Number of Subjects with Anaemia, Any severity [2]: 2; Number of Subjects with Anaemia, LT (life threatening) [2]: 0; Number of Subjects with Anaemia, Mi (mild) [2]: 0; Number of Subjects with Anaemia, Mo (moderate) [2]: 2; Number of Subjects with Anaemia, Se (severe) [2]: 0; Number of Subjects with Blood and lymphatic system disorders, Any severity [2]: 8; Number of Subjects with Blood and lymphatic system disorders, LT (life threatening) [2]: 0; Number of Subjects with Blood and lymphatic system disorders, Mi (mild) [2]: 3; Number of Subjects with Blood and lymphatic system disorders, Mo (moderate) [2]: 4; Number of Subjects with Blood and lymphatic system disorders, Se (severe) [2]: 1; Number of Subjects with Thrombocytopenia, Any severity [2]: 6; Number of Subjects with Thrombocytopenia, LT (life threatening) [2]: 0; Number of Subjects with Thrombocytopenia, Mi (mild) [2]: 3; Number of Subjects with Thrombocytopenia, Mo (moderate) [2]: 2; Number of Subjects with Thrombocytopenia, Se (severe) [2]: 1; dose proportionality of mean Cmax and AUC [3]: increased approximately linearly proportional to dose; Number of Subjects With Any Adverse Events, FT (fatal) [4, 7]: 9; Number of Subjects With Any Adverse Events, LT (life threatening) [4, 7]: 9; Number of Subjects With Any Adverse Events, Mi (mild) [4, 7]: 20; Number of Subjects With Any Adverse Events, Mo (moderate) [4, 7]: 58; Number of Subjects With Any Adverse Events, Se (severe) [4, 7]: 55; Number of Subjects with Anaemia, FT (fatal) [4, 8]: 0; Number of Subjects with Anaemia, LT (life threatening) [4, 8]: 8; Number of Subjects with Anaemia, Mi (mild) [4, 8]: 4; Number of Subjects with Anaemia, Mo (moderate) [4, 8]: 20; Number of Subjects with Anaemia, Se (severe) [4, 8]: 16; Number of Subjects with Blood and lymphatic system disorders, FT (fatal) [4, 8]: 0; Number of Subjects with Blood and lymphatic system disorders, LT (life threatening) [4, 8]: 10; Number of Subjects with Blood and lymphatic system disorders, Mi (mild) [4, 8]: 20; Number of Subjects with Blood and lymphatic system disorders, Mo (moderate) [4, 8]: 28; Number of Subjects with Blood and lymphatic system disorders, Se (severe) [4, 8]: 27; Number of Subjects with Thrombocytopenia, FT (fatal) [4, 8]: 0; Number of Subjects with Thrombocytopenia, LT (life threatening) [4, 8]: 2; Number of Subjects with Thrombocytopenia, Mi (mild) [4, 8]: 21; Number of Subjects with Thrombocytopenia, Mo (moderate) [4, 8]: 19; Number of Subjects with Thrombocytopenia, Se (severe) [4, 8]: 11; % of Subjects with Anaemia, Any severity [4, 9]: 31.0%; % of Subjects with Blood and lymphatic system disorders, Any severity [4, 9]: 54.8%; % of Subjects with Thrombocytopenia, Any severity [4, 9]: 34.2%; Number of Subjects with Anaemia, Any severity [4, 9]: 48; Number of Subjects with Blood and lymphatic system disorders, Any severity [4, 9]: 85; Number of Subjects with Thrombocytopenia, Any severity [4, 9]: 53; % of Subjects With Any Adverse Events, Any severity [4, 10]: 97.4%; Number of Subjects With Any Adverse Events, Any severity [4, 10]: 151; Percent of Patients with All ≥ Grade 3 Adverse Events [4, 11]: 47.1%; Percent of Patients with Grade 3 or Higher Anemia [4, 11]: 15.5%; Percent of Patients with Grade 3 or Higher Neutropenia [4, 11]: 1.3%; Percent of Patients with Grade 3 or Higher Thrombocytopenia [4, 11]: 8.4%; Mean change from baseline Hgb [4, 12]: -13.2 ± 15.5 g/L; Mean change from baseline platelet count [4, 12]: −131 ± 143 ×10^9/L; patients with at least a 35% reduction in spleen volume from baseline [5]: 28%; Total Symptom Score, Percent Change from Baseline To Week 24, Max [6, 13]: 108.3; Total Symptom Score, Percent Change from Baseline To Week 24, Mean [6, 13]: −46.1; Total Symptom Score, Percent Change from Baseline To Week 24, Median [6, 13]: −56.2; Total Symptom Score, Percent Change from Baseline To Week 24, Min [6, 13]: −100.0; Spleen Volume, Percent Change from Baseline To Week 24, Max [6, 14]: 25.1%; Spleen Volume, Percent Change from Baseline To Week 24, Mean [6, 14]: −31.6%; Spleen Volume, Percent Change from Baseline To Week 24, Median [6, 14]: −33.0%; Spleen Volume, Percent Change from Baseline To Week 24, Min [6, 14]: −75.9%; Total Symptom Score, Percent Change from Baseline To Week 16, Max [6, 15]: 292.5; Total Symptom Score, Percent Change from Baseline To Week 16, Mean [6, 15]: −40.5; Total Symptom Score, Percent Change from Baseline To Week 16, Median [6, 15]: −51.1; Total Symptom Score, Percent Change from Baseline To Week 16, Min [6, 15]: −100.0; Spleen Volume, Percent Change from Baseline To Week 12, Max [6, 16]: 3.8%; Spleen Volume, Percent Change from Baseline To Week 12, Mean [6, 16]: −32.0%; Spleen Volume, Percent Change from Baseline To Week 12, Median [6, 16]: −31.7%; Spleen Volume, Percent Change from Baseline To Week 12, Min [6, 16]: −74.4%; proportion of patients with a reduction of 50% or more in the total symptom score ([6]; COMFORT-I, baseline to week 24): 45.9%; proportion of patients with a reduction of 35% or more in spleen volume ([6]; COMFORT-I, week 24 (primary end point)): 41.9%
